Columns and labels:
[1] = target: T1, Human immunodeficiency virus type 1 protease (Human immunodeficiency virus 1, UniProt Q72874); assay: Tested in vitro for the ability to inhibit cleavage of a substrate by the wild type HIV-1 protease
[2] = target: T1, Human immunodeficiency virus type 1 protease; assay: Tested in vitro for potential potency against PI-resistant HIV virus by A-44 mutant enzyme variant
[3] = test system: Human immunodeficiency virus 1; assay: Inhibition of the spread of viral infection in MT-4 human T-lymphoid cells infected by IIIb isolate; type: functional; settings: Human immunodeficiency virus 1, T-lymphoid; read-out: CIC95

Cn1nc(C(F)(F)F)cc1-c1ccc(CN2CCN(C[C@@H](O)C[C@@H](Cc3ccccc3)C(=O)NC3c4ccccc4C[C@H]3O)[C@H](C(=O)NC(C)(C)C)C2)s1 (single isomer, unassigned)
IC50 [1]: < 0.1 nM
IC50 [2]: < 0.6 nM
IC95 [3]: 6 nM

Source: ChEMBL document CHEMBL1135057, “A combinatorial library of indinavir analogues and its in vitro and in vivo studies” (Bioorg Med Chem Lett, 2002)
